Laboratory results taken from publication PMC6026870, “Selective induction of cancer cell death by VDAC1‐based peptides and their potential use in cancer therapy” (Molecular Oncology, 2018).

How the values were obtained:
A549 cells = assay: Apoptosis, acridine orange/ethidium bromide staining; assay type: cell-based, human; details: A549, 3 h; quantitation, mean ± SE (n = 3) (Fig. 5E)
Experimental: For PI and annexin V–FITC staining, A549 or MDA‐MB‐231 cells, untreated or treated with VDAC1‐based peptides, were collected (1500 g for 5 min), washed, and resuspended in 200 μL binding buffer (10 mM HEPES/NaOH (pH 7.4), 140 mM NaCl, and 2.5 mM CaCl2). Annexin V–FITC staining was performed according to the recommended protocol. Cells were then washed once with binding buffer and resuspended in 200 μL binding buffer, to which PI was added immediately before flow cytometric analysis. At least 10 000 events were collected, recorded on a dot plot, and analyzed by flow cytometer. Acridine orange/ethidium bromide staining was carried as described previously (Zaid et al., 2005), with cells visualized by fluorescence microscopy (Olympus LX2‐KSP, Tokyo, Japan), and images were captured with a CCD camera. About 200 cells were counted for each experiment.

U‐87MG = assay: Cell death, PI staining and FACS; assay type: cell-based; details: anti‐TfR antibodies (1 : 250) 2 h, then peptide 5 μM 3 h, n = 2 (Fig. 3C)
Experimental: Leukemia cells, U‐937, MEC‐1 cells (4 × 10^5 or 8 × 10^5 cells/sample, respectively), as well as other leukemia or suspension cell lines, were incubated in 200 μL serum‐free medium with various concentrations of the peptide for 90 min at 23–25 °C, collected by centrifugation (500 g, 5 min), washed with PBS, and analyzed for cell death. Adherent cells (6 × 10^5 mL^−1 at 70–80% confluence) were incubated with the peptide of interest in 500 μL serum‐free recommended culture medium for 3–6 h at 37 °C and 5% CO2. The cells were then trypsinized, centrifuged (1500 g, 5 min), washed with PBS, and analyzed for the desired activity. Following peptide treatment, cells were subjected to cell death analysis. […] PRO software (BD Biosciences, San Jose, CA, USA).
For each line, cells were incubated with different peptide concentrations, and cell death was determined by PI staining and FACS analysis (Figs 1, 2, 3).

[1] = system: A549 cells (HK‐I in cytosolic fraction); assay: Mitochondria‐bound HK detachment, cell fractionation and immunoblotting; assay type: cell-based, human; details: A549, peptide 3, 5, 10 μM, 3 h; digitonin […]; immunoblot (Fig. 4E)
Experimental: Peptide‐induced HK detachment from mitochondria to the cytosol was also analyzed by immunoblotting. […] Samples were centrifuged at 12 000 g at 4 °C for 10 min, and the obtained supernatants (cytosolic fraction) and pellets (mitochondria) were analyzed by immunoblotting using anti‐HK‐I, anti‐VDAC1, and anti‐GAPDH antibodies, and then with secondary HRP‐conjugated antibodies.

HK‐I = molecular target: T1, HK‐I (Homo sapiens, UniProt P19367); assay: HK activity assay with purified recombinant HK‐I; assay type: biochemical; details: HK‐I 13 µg/ml pre‐incubated with peptide; 1 mM ATP, G6PDH‐coupled, absorbance at 340 nm (Fig. S3B)
T1 construct: His; made in house; host or cells: Escherichia coli BL21
T1 sequence (P19367 1-917): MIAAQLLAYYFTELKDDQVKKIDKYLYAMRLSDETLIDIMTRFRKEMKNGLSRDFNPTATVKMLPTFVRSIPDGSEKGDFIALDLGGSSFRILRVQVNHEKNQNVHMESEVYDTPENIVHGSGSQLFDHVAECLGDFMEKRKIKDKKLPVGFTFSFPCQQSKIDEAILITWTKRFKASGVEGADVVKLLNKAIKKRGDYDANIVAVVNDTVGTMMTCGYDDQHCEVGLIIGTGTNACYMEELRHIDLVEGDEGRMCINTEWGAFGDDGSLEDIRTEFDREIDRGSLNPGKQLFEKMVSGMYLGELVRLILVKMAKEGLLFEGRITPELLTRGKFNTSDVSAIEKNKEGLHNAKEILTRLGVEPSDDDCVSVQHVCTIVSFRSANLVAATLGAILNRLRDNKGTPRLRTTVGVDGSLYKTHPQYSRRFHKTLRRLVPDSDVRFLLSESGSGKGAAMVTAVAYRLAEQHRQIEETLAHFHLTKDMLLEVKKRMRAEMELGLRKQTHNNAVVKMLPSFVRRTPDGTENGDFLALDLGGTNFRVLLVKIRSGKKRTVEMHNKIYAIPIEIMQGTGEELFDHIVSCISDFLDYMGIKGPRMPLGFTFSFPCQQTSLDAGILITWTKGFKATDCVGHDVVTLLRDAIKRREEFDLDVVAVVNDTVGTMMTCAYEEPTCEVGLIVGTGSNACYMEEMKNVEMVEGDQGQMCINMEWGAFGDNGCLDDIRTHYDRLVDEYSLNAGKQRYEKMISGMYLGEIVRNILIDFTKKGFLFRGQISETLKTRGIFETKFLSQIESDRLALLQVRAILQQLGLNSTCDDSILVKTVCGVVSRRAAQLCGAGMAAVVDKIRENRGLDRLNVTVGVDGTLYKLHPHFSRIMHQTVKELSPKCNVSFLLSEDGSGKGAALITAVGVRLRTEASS
Experimental: Human HK‐I and HK‐II were cloned into plasmid pET‐His DNA and expressed in Escherichia coli BL21 upon IPTG induction. HK was purified from lysed cells using a HiTrap nickel column (GE Healthcare). Following dialysis, the imidazole‐eluted protein was further purified using a Blue HiTrap column (GE Healthcare). HK was eluted using 10 mM glucose, 20 mM Tris/HCl (pH 8.5), 20% glycerol, and 1.5 mM glucose‐6‐phosphate. Fractions were analyzed by SDS/PAGE and tested for HK activity. The purified active fractions were combined and stored in aliquots at −80 °C.
Change in absorbance at 340 nm (NADH production) was spectrophotometrically measured following addition of 1 mM ATP and 0.05 unit·mL^−1 glucose‐6‐phosphate dehydrogenase.
Purified HK-I (13 µg/ml) was pre-incubated with the indicated concentrations of Tf-D-LP4 (●) or R-Tf-D-LP4 (○) and assayed for HK activity as described in Materials and Methods. Change in absorbance at 340 nm (NADH production) was spectrophotometrically measured following addition of 1 mM ATP, and 0.05 unit/ml glucose-6-phosphate dehydrogenase. C. Tf-D-LP4 and R-Tf-D-LP4 solubility. The peptides were dissolved to a final concentration of 5 mM in 5% DMSO and diluted to 1.1 mM in HBSS. Peptide absorbance in the supernatant was measured at 280 nm following centrifugation at 12,000g before and after 75 min incubation at 24 °C. […] Cell death was analyzed using PI and FACS analysis. […]

HeLa cells = assay: Cellular ATP levels, luciferase‐based assay (CellTiter‐Glo); assay type: cell-based, human; details: 3 h, percentage of control, mean ± SE (n = 3) (Fig. 4F)
Experimental: Cellular ATP levels were estimated using a luciferase‐based assay (CellTiter‐Glo; Promega). […] ATP levels were assayed according to the manufacturer's protocol, and luminescence was recorded using an Infinite M1000 plate reader (Tecan, Männedorf, Switzerland).

## CC[C@H](C)[C@H](NC(=O)[C@H](C)NC(=O)[C@@H](N)Cc1c[nH]cn1)C(=O)N[C@@H](Cc1ccc(O)cc1)C(=O)N1CCC[C@H]1C(=O)N[C@@H](CCCNC(=N)N)C(=O)N[C@@H](Cc1c[nH]cn1)C(=O)N[C@H](CO)C(=O)N[C@H](Cc1c[nH]c2ccccc12)C(=O)N[C@@H](C(=O)N[C@H](Cc1c[nH]c2ccccc12)C(=O)N[C@H](CCC(=O)O)C(=O)N[C@H](CCCCN)C(=O)N[C@H](CCCCN)C(=O)N[C@H](CC(C)C)C(=O)N[C@H](CCC(=O)O)C(=O)N[C@@H](C(=O)N[C@H](C)C(=O)N[C@@H](C(=O)N[C@H](CC(N)=O)C(=O)N[C@H](CC(C)C)C(=O)N[C@H](C)C(=O)N[C@H](Cc1c[nH]c2ccccc12)C(=O)N[C@@H](C(=O)N[C@H](C)C(=O)NCC(=O)N[C@H](CC(N)=O)C(=O)N[C@H](CO)C(=O)N[C@H](CC(N)=O)C(=O)N[C@H](CCCCN)C(=O)N[C@H](Cc1c[nH]c2ccccc12)C(=O)N[C@@H](C(=O)N[C@H](Cc1c[nH]c2ccccc12)C(=O)N[C@H](CCCCN)C(=O)O)[C@H](C)O)[C@H](C)O)C(C)C)[C@H](C)O)[C@H](C)O [Tf‐D‐LP4]
A549 cells
  apoptotic cell death (acridine orange/ethidium bromide): over 70%
U‐87MG
  decrease in peptide‐induced cell death in anti‐TfR antibody‐treated cells: about twofold
[1]
  increase in HK in the cytosolic fraction: about twofold
HK‐I
  inhibition of purified HK‐I activity: but not Tf-D-LP4 inhibits HK-I activity
HeLa cells
  decrease of cellular ATP levels: about 40%
